Reference: patent US9457081B2, “Combination therapy using c-Met inhibitor and beta-catenin inhibitor” (Samsung Electronics Co., Ltd., priority 2013, dated 2016)

What was measured:
Assay type in all cases: cell-based
Caki-1 cells = test: Caki-1 cell proliferation with beta-catenin siRNA reverse transfection; settings: c-Met inhibitor treated alone (L3-1Y/IgG2 0-2 μg/ml; crizotinib 0-20 nM), 72 hours
Excerpt: (§1) To confirm the effect of co-administration of c-Met inhibitor (anti-c-Met antibody L3-1Y/IgG2 or crizotinib) and beta-catenin siRNA in a cancer cell on which a c-Met inhibitor has no effect when administered alone, a breast cancer cell line HCC1954 (ATCC, CRL 2338) and a kidney cancer cell line Caki-1 (ATCC) were used for assaying the effect of the co-administration.
(§2) In particular, in 96-well plate, beta-catenin siRNA (Dharmacon, SMARTpool) was subjected to reverse transfection into 5000 cells/well of HCC1954 cell or Caki-1 cell and the cells were incubated (medium: 10% FBS in RPMI 1640 (GIBCO), incubation temperature: 37° C.). […] The number of the cells was counted through luminescence signal, and the luminescence signal was recorded using Envision 2104 Multi-label Reader (Perkin Elmer).

HCC1954 cells = test: HCC1954 cell proliferation with beta-catenin siRNA reverse transfection; settings: c-Met inhibitor treated alone (L3-1Y/IgG2 0-2 μg/ml; crizotinib 0-20 nM), 72 hours
Excerpt: as §1, §2

Lovo cells = test: Lovo cell proliferation (CellTiter Glo luminescence); settings: Lovo (FIG. 5); crizotinib administered alone; 72 hours
Description: To confirm the effect of co-administration in a colon cancer cell on which a c-Met inhibitor has no effect when administered alone, Lovo (ATCC, CCL-229) cells were used for assaying the effect of co-administration on cell proliferation.
(§3) In particular, 5000 cells of Lovo cell were incubated in 96-well plate (medium: 10% FBS in RPMI 1640 (GIBCO), incubation temperature: 37° C.). 24 hours after, the incubated cells were treated with a small molecular compound inhibiting c-Met, crizotinib (Selleck chemical) and beta-catenin inhibitor XAV-939 (Selleck chemical). In particular, 72 hours after the antibody treatment, 100 uL of CellTiter Glo solution (Promega, G7572) was added to each well and left at room temperature for 30 minutes. The number of the cells was counted through luminescence signal, and the luminescence signal was recorded using Envision 2104 Multi-label Reader (Perkin Elmer). In the experiment, L3-1Y/IgG2 was used at the amount of 0, 0.016, 0.08, 0.4, and 2 μg/ml, and XAV-939 was used at the fixed amount of 5 uM.

HT-29 cells = test: HT-29 cell proliferation / viability (CellTiter Glo luminescence); settings: crizotinib administered alone, 0-20 nM, 72 hours
Description: To confirm the effect of co-administration in a colon cancer cell on which an anti-c-Met antibody has no effect when administered alone, HT-29 (ATCC, HTB-38) cells were used for assaying the effect of co-administration on cell proliferation.
as §3, with “HT-29” for “Lovo”, “L3-1Y/IgG2 prepared in reference example or anti-c-Met antibody 1 (heavy chain: SEQ ID NO: 109; light chain: SEQ ID NO: 110)” for “a small molecular compound inhibiting c-Met, crizotinib (Selleck chemical)”, “uM. […]” for “uM.”
In particular, 5000 cells of HT-29 cell were incubated in 96-well plate (medium: 10% FBS in RPMI 1640 (GIBCO), incubation temperature: 37° C.). […] The number of the cells was counted through luminescence signal, and the luminescence signal was recorded using Envision 2104 Multi-label Reader (Perkin Elmer). […]

In the case of C[C@@H](Oc1cc(-c2cnn(C3CCNCC3)c2)cnc1N)c1c(Cl)ccc(F)c1Cl [crizotinib, 3-[(1R)-1-(2,6-dichloro-3-fluorophenyl)ethoxy]-5-(1-piperidin-4-ylpyrazol-4-yl)pyridin-2-amine, reference compound], the “cell proliferation inhibition effect” value (Caki-1 cells) is reported as “no cell proliferation inhibition effect is observed”, the “cell proliferation inhibition effect” value (HCC1954 cells) is reported as “no cell proliferation inhibition effect is observed” and the “cell proliferation inhibition effect” value (Lovo cells) is reported as “no cell proliferation inhibition effect is observed”. For the same molecule, the “cell proliferation inhibition effect” value (HT-29 cells) was “no cell proliferation inhibition effect is observed”.
